Patent US20230406840A1, “N-(2-(3-CYANO-2-AZABICYCLO[3.1.0]HEXAN-2-YL)-2-OXOETHYL)QUINOLINE-4-CARBOXAMIDES” (AstraZeneca AB, priority 2022, published 2023)
Converted amounts (≈) assume the structure as drawn.

How the values were obtained:
[1] = target: human Fibroblast activation protein alpha (hFAP) (Homo sapiens (Human), UniProt Q12884); experiment: hFAP inhibition assay (tight binders); type: biochemical; conditions: tight-binder format, Ala-Pro-AMC 20 μM, 2.5 h incubation; n = 1 or geometric mean (n = 5-10)
Procedure: Data were analyzed in Genedata Screener®.

[2] = target: Prolyl Oligopeptidase (hPREP) (Homo sapiens (Human), UniProt P48147); experiment: hPREP inhibition assay; type: biochemical; conditions: hPREP 0.6 nM, Z-Gly-Pro-amino-methylcoumarin 50 μM; read-out: PREP IC50
Procedure: Compounds were tested in a biochemical inhibition assay using Prolyl endopeptidase, Prolyl Oligopeptidase (hPREP) enzyme at 0.6 nM FAC (R&D Systems, 4308-SE) and the substrate Z-Gly-Pro-amino-methylcoumarin (Bachem, I-1145) at 50 μM FAC. 384 Low volume black plates (Greiner #784076) were used. […] 4 μL, 100 μM substrate solution (25 mM Tris HCl, 250 mM NaCl, 0.01% Triton X-100, 5 mM Glutathione, pH 7.5) was added to each well. Plates were centrifuged at 1000 rpm and incubated for 20 min at rt in dark. […] Data were analyzed in Genedata Screener®.

[3] = Metabolic stability in human liver microsomes (HLM); type: in vitro ADME
Procedure: Metabolic stability in HLM was measured as described in J Comput Aided Mol Des 2015, 29, 795.

Rat Hepatocytes (rHep) = experiment: Metabolic stability in rat hepatocytes (rHep); type: in vitro ADME
Procedure: Metabolic stability in rat hepatocytes was measured as described in J Comput Aided Mol Des 2015, 29, 795.

Kinetic solubility = type: physicochemical; conditions: kinetic from dmso stock
Procedure: Kinetic solubility was measured as described in Comput Aided Mol Des 2015, 29, 795.

hFAP = hFAP (Homo sapiens (Human), UniProt Q12884);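 note: fluorescence read after incubating enzyme with substrate at room temperature, IC50 fitted from percent inhibition against log concentration with a one-site model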
Procedure: Compounds were tested in a biochemical inhibition assay using hFAP enzyme at 0.24 nM FAC (Proteros, 38-760 (PR-0071)) and the substrate Ala-Pro-AMC (ARI-3144) at 20 μM FAC. 384 low volume black plates (Greiner #784076) were used. 4 μL, 0.48 nM enzyme solution (100 mM Tris HCl, 100 mM NaCl, 0.05% Chaps, pH 7.4) was added to 40 nL compounds (in DMSO) at 10 CR, 3-fold dilution series from 50 μM FAC. Plates were incubated for 15 min at rt in dark. 4 μL, 40 μM substrate solution (100 mM Tris HCl, 100 mM NaCl, 0.05% Chaps, pH 7.4) was added to each well. Plates were centrifuged at 1000 rpm and incubated for 30 min at rt in dark. The plates were read on a PHERAstar® reader with excitation 340 nm and emission 460 nm. Data were analyzed in Genedata Screener®. IC50 values were determined by plotting % inhibition versus log compound concentration and using a one site dose response model.

hFAP (M39-A757) = hFAP (M39-A757) (Homo sapiens (Human), UniProt Q12884)
Procedure: Compounds were tested in a direct binding assay using 8K surface plasmon resonance biosensor (GE Healthcare) at 20° C. Immobilization of hFAP (M39-A757) on a CMD200M sensor chip (Xantec) was performed using standard amine coupling procedure in immobilization buffer (10 mM HEPES, 150 mM NaCl, 0.05% Tween20, pH 7.4). The surface was washed with 10 mM NaOH, 1M NaCl before being activated with EDC/NHS (GE Healthcare), followed by immobilization of hFAP (in 10 mM Acetate pH 5.0). Finally, the surface was deactivated by ethanolamine. Immobilization levels of hFAP were around 4000-6000 RU. The reference spot was treated as described, omitting the injection of hFAP. Compound concentration series were injected over the immobilized protein in increasing concentrations (2-500 nM) using single cycle kinetics in running buffer (20 mM TRIS, 150 mM NaCl, 0.05% Tween20, 1% DMSO, pH 7.4). Interaction models were fitted globally to the experimental traces, enabling determination of kon, koff and Kd.

Human Hepatocytes (hHep) = experiment: Metabolic stability in human hepatocytes (hHep); type: in vitro ADME
Procedure: Metabolic stability in human hepatocytes was measured as described in Xenobiotica 2010, 40, 637.

Chain of hFAP (Q12884 38-760): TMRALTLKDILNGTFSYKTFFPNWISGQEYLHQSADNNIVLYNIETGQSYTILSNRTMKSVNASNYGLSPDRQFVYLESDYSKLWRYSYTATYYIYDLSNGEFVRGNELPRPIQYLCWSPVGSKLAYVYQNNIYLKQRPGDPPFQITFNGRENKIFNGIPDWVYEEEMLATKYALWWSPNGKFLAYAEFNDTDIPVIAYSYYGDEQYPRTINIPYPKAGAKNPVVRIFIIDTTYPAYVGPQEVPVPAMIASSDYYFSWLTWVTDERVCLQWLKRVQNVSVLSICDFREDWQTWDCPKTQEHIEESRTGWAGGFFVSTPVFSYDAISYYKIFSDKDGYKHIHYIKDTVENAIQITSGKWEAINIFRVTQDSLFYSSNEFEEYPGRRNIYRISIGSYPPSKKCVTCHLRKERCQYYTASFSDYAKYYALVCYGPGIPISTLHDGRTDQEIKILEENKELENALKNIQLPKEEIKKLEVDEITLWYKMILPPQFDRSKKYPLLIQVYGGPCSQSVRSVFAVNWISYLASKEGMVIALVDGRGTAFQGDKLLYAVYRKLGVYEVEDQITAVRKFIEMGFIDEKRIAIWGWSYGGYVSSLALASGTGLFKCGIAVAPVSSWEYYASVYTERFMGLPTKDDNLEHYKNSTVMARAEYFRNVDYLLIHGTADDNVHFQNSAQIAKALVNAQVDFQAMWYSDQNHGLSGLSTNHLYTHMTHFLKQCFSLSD
Chain of human Fibroblast activation protein alpha (hFAP) (Q12884 38-760): as above
Chain of hFAP (M39-A757) (Q12884 39-757): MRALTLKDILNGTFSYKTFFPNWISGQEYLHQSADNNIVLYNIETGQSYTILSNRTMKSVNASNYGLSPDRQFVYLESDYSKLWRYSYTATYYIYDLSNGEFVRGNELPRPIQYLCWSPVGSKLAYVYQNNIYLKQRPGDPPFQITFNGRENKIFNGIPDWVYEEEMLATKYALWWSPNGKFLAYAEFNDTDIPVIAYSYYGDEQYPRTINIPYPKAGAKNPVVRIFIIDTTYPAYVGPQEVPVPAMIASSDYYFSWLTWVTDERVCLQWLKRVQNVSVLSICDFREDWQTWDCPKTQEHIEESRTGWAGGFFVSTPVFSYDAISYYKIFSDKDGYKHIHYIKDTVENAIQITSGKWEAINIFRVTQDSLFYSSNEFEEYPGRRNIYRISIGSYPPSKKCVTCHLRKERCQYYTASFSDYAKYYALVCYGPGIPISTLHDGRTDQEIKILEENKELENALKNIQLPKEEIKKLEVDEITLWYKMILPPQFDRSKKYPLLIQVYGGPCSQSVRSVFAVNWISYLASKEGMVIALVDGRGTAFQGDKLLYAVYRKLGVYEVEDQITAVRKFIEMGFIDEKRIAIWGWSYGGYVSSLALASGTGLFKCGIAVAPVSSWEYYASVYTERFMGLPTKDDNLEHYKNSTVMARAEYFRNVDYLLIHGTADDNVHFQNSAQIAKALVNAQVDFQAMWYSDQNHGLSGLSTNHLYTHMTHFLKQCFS
Chain of Prolyl Oligopeptidase (hPREP) (P48147 whole entry): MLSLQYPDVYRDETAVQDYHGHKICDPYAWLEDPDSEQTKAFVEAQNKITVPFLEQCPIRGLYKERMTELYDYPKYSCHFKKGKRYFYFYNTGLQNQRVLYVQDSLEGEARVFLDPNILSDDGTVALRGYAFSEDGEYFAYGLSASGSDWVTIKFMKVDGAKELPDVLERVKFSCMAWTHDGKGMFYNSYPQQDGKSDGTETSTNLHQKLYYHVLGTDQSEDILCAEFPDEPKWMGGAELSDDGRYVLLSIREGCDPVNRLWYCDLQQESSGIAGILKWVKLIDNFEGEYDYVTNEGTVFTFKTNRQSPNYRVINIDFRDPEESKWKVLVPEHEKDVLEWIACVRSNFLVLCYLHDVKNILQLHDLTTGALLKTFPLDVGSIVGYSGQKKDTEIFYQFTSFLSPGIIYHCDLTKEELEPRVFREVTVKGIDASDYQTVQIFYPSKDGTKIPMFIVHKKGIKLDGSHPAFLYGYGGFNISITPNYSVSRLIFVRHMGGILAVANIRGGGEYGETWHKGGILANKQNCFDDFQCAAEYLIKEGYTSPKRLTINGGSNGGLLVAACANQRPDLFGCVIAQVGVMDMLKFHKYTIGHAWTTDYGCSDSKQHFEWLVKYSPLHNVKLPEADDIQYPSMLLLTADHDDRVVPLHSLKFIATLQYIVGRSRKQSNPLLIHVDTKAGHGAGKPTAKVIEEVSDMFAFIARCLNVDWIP

Compound | IC50 [1] | IC50 [2] | microsomal CLint [3] | rHeps CLint (Rat Hepatocytes (rHep)) | solubility (Kinetic solubility) | IC50 (hFAP) | Kd (hFAP (M39-A757)) | hHep CLint (Human Hepatocytes (hHep))
N#C[C@@H]1C[C@@H]2C[C@@H]2N1C(=O)CNC(=O)c1ccnc2ccc(CF)cc12 [Example 11, N-(2-((1S,3S,5S)-3-Cyano-2-azabicyclo[3.1.0]hexan-2-yl)-2-oxoethyl)-6-(fluoromethyl)quinoline-4-carboxamide] | 0.4 nM | > 50000 nM | < 3 µL/min/mg | 5.3 μL/min/1E6 | 970 µM (≈ 342 µg/mL) | 2.2 nM | 17 nM | –
CC(C)(F)c1ccc2nccc(C(=O)NCC(=O)N3[C@H](C#N)C[C@@H]4C[C@@H]43)c2c1 [Example 12, N-(2-((1S,3S,5S)-3-Cyano-2-azabicyclo[3.1.0]hexan-2-yl)-2-oxoethyl)-6-(2-fluoropropan-2-yl)quinoline-4-carboxamide] | 0.75 nM | > 50000 nM | 100 µL/min/mg | 20 μL/min/1E6 | 300 µM (≈ 114 µg/mL) | 3.8 nM | 13 nM | –
COC(C)(C)c1ccc2nccc(C(=O)NCC(=O)N3[C@H](C#N)C[C@@H]4C[C@@H]43)c2c1 [Example 16, N-(2-((1S,3S,5S)-3-Cyano-2-azabicyclo[3.1.0]hexan-2-yl)-2-oxoethyl)-6-(2-methoxypropan-2-yl)quinoline-4-carboxamide] | 0.81 nM | > 50000 nM | 72 µL/min/mg | 21 μL/min/1E6 | > 1000 µM | 4.2 nM | 20 nM | –
N#C[C@@H]1C[C@@H]2C[C@@H]2N1C(=O)CNC(=O)c1ccnc2ccc(COC(F)(F)F)cc12 [Example 17, N-(2-((1S,3S,5S)-3-Cyano-2-azabicyclo[3.1.0]hexan-2-yl)-2-oxoethyl)-6-((trifluoromethoxy)methyl)quinoline-4-carboxamide] | 0.38 nM | > 50000 nM | 110 µL/min/mg | 21 μL/min/1E6 | 340 µM (≈ 142 µg/mL) | 1.7 nM | 8.5 nM | –
CC(C)(F)c1ccc2c(C(=O)NCC(=O)N3[C@H](C#N)C[C@@H]4C[C@@H]43)ccnc2c1 [Example 21, N-(2-((1S,3S,5S)-3-Cyano-2-azabicyclo[3.1.0]hexan-2-yl)-2-oxoethyl)-7-(2-fluoropropan-2-yl)quinoline-4-carboxamide] | 0.97 nM | > 50000 nM | 13 µL/min/mg | 70 μL/min/1E6 | 56 µM (≈ 21.3 µg/mL) | 2.8 nM | 10 nM | –
N#C[C@@H]1C[C@@H]2C[C@@H]2N1C(=O)CNC(=O)c1ccnc2cc(C(F)F)ccc12 [Example 22, N-(2-((1S,3S,5S)-3-Cyano-2-azabicyclo[3.1.0]hexan-2-yl)-2-oxoethyl)-7-(difluoromethyl)quinoline-4-carboxamide] | 0.51 nM | > 50000 nM | < 5.8 µL/min/mg | 2.9 μL/min/1E6 | > 1000 µM | 1.5 nM | – | <1 μL/min/1E6
N#C[C@@H]1C[C@@H]2C[C@@H]2N1C(=O)CNC(=O)c1ccnc2cc(CF)ccc12 [Example 24, N-(2-((1S,3S,5S)-3-Cyano-2-azabicyclo[3.1.0]hexan-2-yl)-2-oxoethyl)-7-(fluoromethyl)quinoline-4-carboxamide] | 0.3 nM | > 45000 nM | < 3 µL/min/mg | 2.7 μL/min/1E6 | > 1000 µM | 1.2 nM | 8.2 nM | –
COC(C)c1ccc2c(C(=O)NCC(=O)N3[C@H](C#N)C[C@@H]4C[C@@H]43)ccnc2c1 (stereo partly drawn) [Example 27, N-(2-((1S,3S,5S)-3-Cyano-2-azabicyclo[3.1.0]hexan-2-yl)-2-oxoethyl)-7-(1-methoxyethyl)quinoline-4-carboxamide] | 2 nM | > 50000 nM | 21 µL/min/mg | 7.2 μL/min/1E6 | > 1000 µM | 6 nM | – | 3.1 μL/min/1E6
COC(C)(C)c1ccc2c(C(=O)NCC(=O)N3[C@H](C#N)C[C@@H]4C[C@@H]43)ccnc2c1 [Example 28, N-(2-((1S,3S,5S)-3-Cyano-2-azabicyclo[3.1.0]hexan-2-yl)-2-oxoethyl)-7-(2-methoxypropan-2-yl)quinoline-4-carboxamide] | 1.3 nM | > 50000 nM | 36 µL/min/mg | 5.2 μL/min/1E6 | > 1000 µM | 4.6 nM | 7.8 nM | –
N#C[C@@H]1C[C@@H]2C[C@@H]2N1C(=O)CNC(=O)c1ccnc2cc(COC(F)(F)F)ccc12 [Example 29, N-(2-((1S,3S,5S)-3-Cyano-2-azabicyclo[3.1.0]hexan-2-yl)-2-oxoethyl)-7-((trifluoromethoxy)methyl)quinoline-4-carboxamide] | 0.3 nM | > 50000 nM | 8.9 µL/min/mg | 81 μL/min/1E6 | 23 µM (≈ 9.62 µg/mL) | 1.3 nM | 11 nM | –
CC(C)Oc1ccc2nccc(C(=O)NCC(=O)N3[C@H](C#N)C[C@@H]4C[C@@H]43)c2c1 [Example 34, N-(2-((1S,3S,5S)-3-Cyano-2-azabicyclo[3.1.0]hexan-2-yl)-2-oxoethyl)-6-isopropoxyquinoline-4-carboxamide] | 1.2 nM | > 50000 nM | 160 µL/min/mg | 20 μL/min/1E6 | 850 µM (≈ 322 µg/mL) | 4.1 nM | – | 15 μL/min/1E6
N#C[C@@H]1C[C@@H]2C[C@@H]2N1C(=O)CNC(=O)c1ccnc2ccc(OCC3CC3)cc12 [Example 35, N-(2-((1S,3S,5S)-3-Cyano-2-azabicyclo[3.1.0]hexan-2-yl)-2-oxoethyl)-6-(cyclopropylmethoxy)quinoline-4-carboxamide] | 0.097 nM | > 50000 nM | 90 µL/min/mg | 16 μL/min/1E6 | 590 µM (≈ 230 µg/mL) | 0.64 nM | – | 12 μL/min/1E6
N#C[C@@H]1C[C@@H]2C[C@@H]2N1C(=O)CNC(=O)c1ccnc2cc(C3(C(F)(F)F)CC3)ccc12 [Example 36, N-(2-((1S,3S,5S)-3-Cyano-2-azabicyclo[3.1.0]hexan-2-yl)-2-oxoethyl)-7-(1-(trifluoromethyl)cyclopropyl)quinoline-4-carboxamide] | 0.58 nM | > 50000 nM | 180 µL/min/mg | 92 μL/min/1E6 | 210 µM (≈ 90 µg/mL) | 3.4 nM | 4.3 nM | –
CC1(c2ccc3nccc(C(=O)NCC(=O)N4[C@H](C#N)C[C@@H]5C[C@@H]54)c3c2)CC1 [Example 43, N-(2-((1S,3S,5S)-3-Cyano-2-azabicyclo[3.1.0]hexan-2-yl)-2-oxoethyl)-6-(1-methylcyclopropyl)quinoline-4-carboxamide] | 0.56 nM | > 50000 nM | 260 µL/min/mg | 67 μL/min/1E6 | 820 µM (≈ 307 µg/mL) | 2.9 nM | 11 nM | –
N#C[C@@H]1C[C@@H]2C[C@@H]2N1C(=O)CNC(=O)c1ccnc2ccc(C3(C(F)(F)F)CC3)cc12 [Example 44, N-(2-((1S,3S,5S)-3-Cyano-2-azabicyclo[3.1.0]hexan-2-yl)-2-oxoethyl)-6-(1-(trifluoromethyl)cyclopropyl)quinoline-4-carboxamide] | 1.1 nM | > 50000 nM | > 300 µL/min/mg | 150 μL/min/1E6 | 510 µM (≈ 218 µg/mL) | 4.6 nM | 12 nM | –
CCOC1(c2ccc3nccc(C(=O)NCC(=O)N4[C@H](C#N)C[C@@H]5C[C@@H]54)c3c2)CC1 [Example 45, N-(2-((1S,3S,5S)-3-Cyano-2-azabicyclo[3.1.0]hexan-2-yl)-2-oxoethyl)-6-(1-ethoxycyclopropyl)quinoline-4-carboxamide] | 0.25 nM | > 50000 nM | 120 µL/min/mg | 40 μL/min/1E6 | > 1000 µM | 0.76 nM | 7.3 nM | –
N#C[C@@H]1C[C@@H]2C[C@@H]2N1C(=O)CNC(=O)c1ccnc2ccc(C3(C#N)CC3)cc12 [Example 46, N-(2-((1S,3S,5S)-3-Cyano-2-azabicyclo[3.1.0]hexan-2-yl)-2-oxoethyl)-6-(1-cyanocyclopropyl)quinoline-4-carboxamide] | 0.18 nM | > 50000 nM | 20 µL/min/mg | 6.6 μL/min/1E6 | 110 µM (≈ 42.4 µg/mL) | 1.7 nM | 25 nM | <1 μL/min/1E6
